One test deals with T1, HRas^G13D (Homo sapiens, UniProt P01112, G13D).
T1 construct: N-terminal His-tagged, residues 1-166
Nature of the test: STD-NMR on HRas G13D-GDP; dose-dependent inhibition of intrinsic and GEF-mediated mant-nucleotide dissociation/exchange. Type of test: binding.

The next test concerns the target T2, HRas (Homo sapiens, UniProt P01112).
T2 construct: N-terminal His-tagged, residues 1-166
Nature of the test: STD-NMR and native MS of the HRas-GDP-cmp4 ternary complex; the EC50 is from SPR inhibition of RasGRF1 binding to HRas-GDP; mant-nucleotide dissociation/exchange also inhibited.

Molecules are shown by their SMILES.

T1 sequence (P01112 1-166 G13D): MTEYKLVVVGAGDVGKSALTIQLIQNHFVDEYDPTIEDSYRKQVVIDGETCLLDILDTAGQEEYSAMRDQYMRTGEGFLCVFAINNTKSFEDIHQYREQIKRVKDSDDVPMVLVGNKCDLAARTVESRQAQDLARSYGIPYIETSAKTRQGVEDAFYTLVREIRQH
T2 sequence (P01112 1-166): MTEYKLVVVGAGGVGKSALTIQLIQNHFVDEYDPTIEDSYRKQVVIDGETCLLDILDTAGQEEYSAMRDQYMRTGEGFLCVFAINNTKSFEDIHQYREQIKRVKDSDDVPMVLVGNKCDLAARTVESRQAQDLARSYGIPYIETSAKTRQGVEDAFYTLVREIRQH

One may read the EC50 as the midpoint of the concentration-response curve. High values mean a less potent agent, low ones a more potent agent. For the compound `OC[C@H]1O[C@@H](O[C@H]2[C@H](O)[C@@H](O)[C@H](N(Cc3ccc(O)c(O)c3)OCc3ccccc3)O[C@@H]2CO)[C@H](O)[C@@H](O)[C@H]1O` [cmp4], the “STD-NMR on HRas G13D-GDP; dose-dependent inhibition of intrinsic and GEF-mediate” value on HRas^G13D was “STD analysis on HRas^G13D mutant protein saturated with cmp4 shows that cmp4 also interacts with the mutant protein”. In addition, the EC50 at HRas was roughly 170 µM.

Values taken from article PMC7925909, “The Multi-Level Mechanism of Action of a Pan-Ras Inhibitor Explains its Antiproliferative Activity on Cetuximab-Resistant Cancer Cells” (Frontiers in Molecular Biosciences, 2021).
